How the values were obtained:
[1] = Crystal; for Normal melting temperature: DTA
[2] = molar heat capacity at constant pressure; details: 101.33 kPa, DSC
[3] = Molar enthalpy of transition or fusion; details: Crystal; DSC

COC(=O)c1ccccc1O [methyl 2-hydroxybenzoate]
Details	Molar enthalpy of transition or fusion [kcal/mol]	Normal melting temperature [°C]
[1]	–	-1.66
[3]	3.89	–

[2], Liquid
Details	molar heat capacity at constant pressure [J/K/mol]
293.15 K	240.4
294.15 K	241.6
295.15 K	242.5
296.15 K	243.3
297.15 K	243.9
298.15 K	244.3
299.15 K	244.8
300.15 K	245.2
301.15 K	245.6
302.15 K	246.1
303.15 K	246.6
304.15 K	246.9
305.15 K	247.1
306.15 K	247.4
307.15 K	247.8
308.15 K	248
309.15 K	248.3
310.15 K	248.6
311.15 K	249.1
312.15 K	249.4

COC(=O)c1cccc(O)c1 [methyl 3-hydroxybenzoate]
Details	mass density [kg/m3]
[1], 298.15 K, 101.33 kPa, Pycnometric method	1230

Details	Molar enthalpy of transition or fusion [kcal/mol]	Normal melting temperature [°C]
[1]	–	71.10
[3]	4.81	–

[2], Crystal
Details	molar heat capacity at constant pressure [J/K/mol]
293.15 K	200.2
294.15 K	201.3
295.15 K	202.6
296.15 K	203.3
297.15 K	204.1
298.15 K	205
299.15 K	205.6
300.15 K	206.2
301.15 K	206.7
302.15 K	207.5
303.15 K	208.2
304.15 K	208.7
305.15 K	209.2
306.15 K	209.8
307.15 K	210.4
308.15 K	211
309.15 K	211.5
310.15 K	212
311.15 K	212.6
312.15 K	213.1

COC(=O)c1ccc(O)cc1 [methyl 4-hydroxybenzoate]
Details	Molar enthalpy of transition or fusion [kcal/mol]	Normal melting temperature [°C]
[1]	–	126
[3]	6.18	–

[2], Crystal
Details	molar heat capacity at constant pressure [J/K/mol]
293.15 K	209.8
294.15 K	211
295.15 K	212.2
296.15 K	212.8
297.15 K	213.6
298.15 K	214.4
299.15 K	215.2
300.15 K	215.7
301.15 K	216.2
302.15 K	217
303.15 K	217.8
304.15 K	218.4
305.15 K	218.9
306.15 K	219.3
307.15 K	220.1
308.15 K	220.6
309.15 K	221.2
310.15 K	221.7
311.15 K	222.4
312.15 K	222.8

Reference: the NIST ThermoML archive (doi:10.1016/j.jct.2018.04.011)
